# Results as given in ChEMBL document CHEMBL4616697, “Discovery of Adamantane Carboxamides as Ebola Virus Cell Entry and Glycoprotein Inhibitors” (ACS Med Chem Lett, 2020).
# pEC50: −log10 of the molar value.
# Experiments:
# [1] = Inhibition of glycoprotein in VSV pseudotyped Ebolavirus infected in African green monkey Vero cells assessed as reduction in virus entry incubated for 24 hrs by luciferase reporter gene assay; type: cell-based
# [2] = Kinetic aqueous solubility of compound in PBS at pH 6.4 to 7.5 measured after 2 hrs by spectrophotometry analysis; type: physicochemical; conditions: read-out: Kinetic_solubility
# [3] = Metabolic stability in human liver microsomes assessed as parent compound remaining at 1 uM pretreated for 30 mins followed by NADPH addition and measured after 60 mins by LC-MS/MS analysis; type: ADME, Microsome; conditions: for remaining at 1 h, 1 µM: liver microsomes, read-out: Stability; for Stability: microsomes, 1 h, 1 µM
# [4] = Metabolic stability in mouse liver microsomes assessed as parent compound remaining at 1 uM pretreated for 30 mins followed by NADPH addition and measured after 60 mins by LC-MS/MS analysis; type: ADME, Microsome; conditions: read-out: Stability
# [5] = Metabolic stability in guinea pig liver microsomes assessed as parent compound remaining at 1 uM pretreated for 30 mins followed by NADPH addition and measured after 60 mins by LC-MS/MS analysis; type: ADME, Cavia porcellus, Microsome; conditions: read-out: Stability
# [6] = Metabolic stability in rat liver microsomes assessed as parent compound remaining at 1 uM pretreated for 30 mins followed by NADPH addition and measured after 60 mins by LC-MS/MS analysis; type: ADME, Microsome; conditions: read-out: Stability
# [7] = Metabolic stability in Cynomolgus monkey liver microsomes assessed as parent compound remaining at 1 uM pretreated for 30 mins followed by NADPH addition and measured after 60 mins by LC-MS/MS analysis; type: ADME, Macaca fascicularis, Microsome; conditions: read-out: Stability
# [8] = Metabolic stability in dog liver microsomes assessed as parent compound remaining at 1 uM pretreated for 30 mins followed by NADPH addition and measured after 60 mins by LC-MS/MS analysis; type: ADME, Canis lupus familiaris, Microsome; conditions: read-out: Stability
# [9] = Aqueous solubility of compound in PBS at pH 7.4 measured after 2 hrs by spectrophotometry analysis; type: physicochemical
# Ebolavirus [10] = assay: Antiviral activity against wild type Ebolavirus infected in African green monkey Vero cells assessed as reduction in plaque forming units incubated for 10 days by crystal violet staining based assay; type: functional, organism-based; conditions: Orthoebolavirus, 240 h
# Ebolavirus [11] = assay: Antiviral activity against wild type Ebolavirus infected in African green monkey Vero E6 cells assessed as inhibition of viral entry compound treated with primary viral infected cells for 60 mins and after 3 days post-infection measured following 10 days of compound incubation with fresh cells infected with primary culture supernatants by virus yield reduction assay; type: functional; conditions: Orthoebolavirus, Vero C1008
# [12] = Cytotoxicity against African green monkey Vero E6 cells assessed as reduction in cell viability incubated for 10 days by neutral red dye based spectrophotometry analysis; set-up: species or system Vero C1008; conditions: chlorocebus sabaeus
# [13] = Selectivity index, ratio of CC50 for African green monkey Vero E6 cells assessed as reduction in cell viability incubated for 10 days by neutral red dye based spectrophotometry analysis to EC90 for wild type Ebolavirus infected in African green monkey Vero E6 cells assessed as reduction in viral replication by virus yield reduction assay; type: toxicity, Vero C1008; conditions: read-out: Selectivity Index
# [14] = Selectivity index, ratio of CC50 for African green monkey Vero E6 cells assessed as reduction in cell viability incubated for 10 days by neutral red dye based spectrophotometry analysis to EC50 for wild type Ebolavirus infected in African green monkey Vero cells assessed as reduction in plaque forming units incubated for 10 days by crystal violet staining based assay; type: toxicity, Vero C1008; conditions: read-out: Ratio CC50/EC50
SMILES,"pEC50 ([1]; Orthoebolavirus, Vero, 24 h)",solubility kinetic at 2 h [2],"remaining at 1 h, 1 µM [3]",pEC50 ([1]; vero),also measured
O=C(NC1CCNCC1)C12CC3CC(C1)CC(c1ccccc1)(C3)C2,7.14,> 100 µM,,,
C[C@H]1C[C@H](NC(=O)C23CC4CC(C)(C2)CC(c2ccccc2)(C4)C3)CCN1 (mixture of isomers),7.34,> 100 µM,75%,,
CC12CC3CC(C(=O)N[C@@H]4CCNC[C@H]4F)(C1)CC(c1ccccc1)(C3)C2 (mixture of isomers),7.48,> 100 µM,60%,,
CCC12CC3CC(C(=O)N[C@H]4CC[C@H](N)CC4)(C1)CC(c1ccccc1)(C3)C2 (mixture of isomers),,> 100 µM,71%,8.00,
CC12CC3CC(C(=O)N4CCNCC4)(C1)CC(c1ccccc1)(C3)C2 (racemic),6.89,> 100 µM,100%,,
CC12CC3CC(C(=O)NC4CCNCC4)(C1)CC(c1ccccc1)(C3)C2 (racemic),,> 100 µM,75%,7.37,
CC12CC3CC(C(=O)N4CCC(N)CC4)(C1)CC(c1ccccc1)(C3)C2 (racemic),7.29,> 100 µM,81%,,
CCC12CC3CC(C(=O)NC4CCNCC4)(C1)CC(c1ccccc1)(C3)C2 (racemic),7.70,> 100 µM,69%,,
CC12CC3CC(C(=O)NCC4CCNCC4)(C1)CC(c1ccccc1)(C3)C2 (racemic),6.38,> 100 µM,,,
CC12CC3CC(C(=O)NC4CC5(CC(N)C5)C4)(C1)CC(c1ccccc1)(C3)C2 (racemic),7.40,> 100 µM,79%,,
CC12CC3CC(C(=O)N[C@H]4CC[C@@H](N)CC4)(C1)CC(c1ccccc1)(C3)C2 (mixture of isomers),6.96,> 100 µM,87%,,
CC12CC3CC(C(=O)N[C@H]4CC[C@H](N)CC4)(C1)CC(c1ccccc1)(C3)C2 (mixture of isomers),,> 100 µM,92%,7.51,
CC12CC3CC(C(=O)N[C@H]4CC[C@H](CN)CC4)(C1)CC(c1ccccc1)(C3)C2 (mixture of isomers),,> 100 µM,75%,7.52,
CC12CC3CC(C(=O)NC4CNC4)(C1)CC(c1ccccc1)(C3)C2 (racemic),6.55,> 100 µM,,,
CC12CC3CC(C(=O)N[C@H]4[C@@H]5CNC[C@@H]54)(C1)CC(c1ccccc1)(C3)C2 (mixture of isomers),6.92,61 µM,,,
CC12CC3CC(C(=O)NCCN)(C1)CC(c1ccccc1)(C3)C2 (racemic),6.60,> 100 µM,,,
CC12CC3CC(C(=O)N[C@H]4CC[C@H](N)CC4)(C1)CC(c1ccccc1)(C3)C2 (stereo in doubt; 38),,,,7.85,"Stability [3]: 100%; remaining at 1 h, 1 µM [4]: 74%; remaining at 1 h, 1 µM [5]: 100%; remaining at 1 h, 1 µM [6]: 63%; remaining at 1 h, 1 µM [7]: 89%; remaining at 1 h, 1 µM [8]: 96%; solubility at 2 h [9]: > 20 mg/mL; pEC50 (Ebolavirus [10]): 6.62; EC90 (Ebolavirus [11]): 750 nM; CC50 at 240 h [12]: 58000 nM; selectivity ratio at 240 h [13]: 77"
CC12CC3CC(C(=O)N[C@H]4CC[C@H](N)CC4)(C1)CC(c1ccccc1)(C3)C2 (stereo in doubt; 39),,,,6.85,
CC12CC3CC(C(=O)N[C@H]4CC[C@H](CN)CC4)(C1)CC(c1ccccc1)(C3)C2 (stereo in doubt; 40),,,,8.00,"Stability [3]: 82%; remaining at 1 h, 1 µM [4]: 27%; remaining at 1 h, 1 µM [5]: 99%; remaining at 1 h, 1 µM [6]: 27%; remaining at 1 h, 1 µM [7]: 61%; remaining at 1 h, 1 µM [8]: 85%; solubility at 2 h [9]: > 20 mg/mL; pEC50 (Ebolavirus [10]): 6.37; EC90 (Ebolavirus [11]): 550 nM; CC50 at 240 h [12]: 22000 nM; selectivity ratio at 240 h [13]: 40"
CC12CC3CC(C(=O)N[C@H]4CC[C@H](CN)CC4)(C1)CC(c1ccccc1)(C3)C2 (stereo in doubt; 41),,,,7.13,
CCC12CC3CC(C(=O)N[C@H]4CC[C@H](N)CC4)(C1)CC(c1ccccc1)(C3)C2 (stereo in doubt; 42),,,,7.92,"Stability [3]: 65%; remaining at 1 h, 1 µM [4]: 60%; remaining at 1 h, 1 µM [5]: 36%; remaining at 1 h, 1 µM [6]: 46%; remaining at 1 h, 1 µM [7]: 60%; remaining at 1 h, 1 µM [8]: 77%; solubility at 2 h [9]: > 20 mg/mL; pEC50 (Ebolavirus [10]): 6.85; CC50 at 240 h [12]: 31000 nM; selectivity ratio at 240 h [14]: 221"
CCC12CC3CC(C(=O)N[C@H]4CC[C@H](N)CC4)(C1)CC(c1ccccc1)(C3)C2 (stereo in doubt; 43),,,,6.46,
